US11178871B2, “Herbicidal pyrimidine compounds” (BASF SE, priority 2016, dated 2021)

Key:
Type in all cases: in vivo
Echinocloa crus-galli [1] = experiment: greenhouse test, post-emergence treatment, ECHCG; settings: post-emergence
In short: (§1)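 Visual injury rating on a 0–100 scale (0 = no damage, 100 = aerial parts fully destroyed) after a 2–4 week test period. Foliar application of compound in aqueous suspension/emulsion to plants at 3–15 cm; greenhouse temperatures 10–25 °C or 20–35 °C depending on species.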

Poa annua = experiment: greenhouse test, pre-emergence treatment, POAAN; settings: 2000 g/ha
Source text: (§2) The culture containers used were plastic flowerpots containing loamy sand with approximately 3.0% of humus as the substrate. The seeds of the test plants were sown separately for each species.
For the pre-emergence treatment, the active ingredients, which had been suspended or emulsified in water, were applied directly after sowing by means of finely distributing nozzles. The containers were irrigated gently to promote germination and growth and subsequently covered with transparent plastic hoods until the plants had rooted. This cover caused uniform germination of the test plants, unless this had been impaired by the active ingredients.
(§3) Depending on the species, the plants were kept at 10-25° C. or 20-35° C., respectively.
(§4) The test period extended over 2 to 4 weeks. During this time, the plants were tended, and their response to the individual treatments was evaluated.
(§5) Evaluation was carried out using a scale from 0 to 100. 100 means no emergence of the plants, or complete destruction of at least the aerial moieties, and 0 means no damage, or normal course of growth. A good herbicidal activity is given at values of at least 70 and a very good herbicidal activity is given at values of at least 85.
(§6) The plants used in the greenhouse experiments were of the following species: […]

Amaranthus retroflexus = experiment: greenhouse test, post-emergence treatment, AMARE
Source text: as §2
(§7) For the post-emergence treatment, the test plants were first grown to a height of 3 to 15 cm, depending on the plant habit, and only then treated with the active ingredients which had been suspended or emulsified in water. For this purpose, the test plants were either sown directly and grown in the same containers, or they were first grown separately as seedlings and transplanted into the test containers a few days prior to treatment.
as §3, §4, §5, §6

Setaria viridis = experiment: greenhouse test, post-emergence treatment, SETVI
Source text: as §2, §7, §3, §4, §5, §6

Abutilon theophrasti = experiment: greenhouse test, post-emergence treatment, ABUTH
Source text: as §2, §7, §3, §4, §5, §6

Echinocloa crus-galli [2] = experiment: greenhouse test, pre-emergence treatment, ECHCG
In short: (§8)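 Herbicidal effect rated on a 0-100 scale, where 0 is normal growth and 100 is no emergence or destroyed aerial parts, 2 to 4 weeks after soil application at sowing.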

Apera spica-venti = experiment: greenhouse test, pre-emergence treatment, APESV
In short: as §8

Alopecurus myosuroides = experiment: greenhouse test, post-emergence treatment, ALOMY; settings: post-emergence
In short: as §1

OC(c1nc(C2CC2)ncc1-c1ccccc1Cl)C(O)c1c(Cl)ccc(Cl)c1Cl (stereo not shown) [Ex. 241]
herbicidal activity (Echinocloa crus-galli [1]; 2000 g/ha): good (A good herbicidal activity is given at values of at least 70)
herbicidal activity (Poa annua): very good (a very good herbicidal activity is given at values of at least 85)

Clc1ccccc1-c1cnc(C2CC2)nc1C1CCCS1 (stereo not shown) [Ex. 55]
herbicidal activity (Amaranthus retroflexus; 1000 g/ha): very good (a very good herbicidal activity is given at values of at least 85)
herbicidal activity (Setaria viridis; 1000 g/ha): very good (a very good herbicidal activity is given at values of at least 85)

CC1(C)OC(c2nc(C3CC3)ncc2-c2ccccc2Cl)C(C)(C)O1 (stereo not shown) [Ex. 266]
herbicidal activity (Abutilon theophrasti; 1000 g/ha): very good (a very good herbicidal activity is given at values of at least 85)
herbicidal activity (Echinocloa crus-galli [2]; 1000 g/ha): very good (a very good herbicidal activity is given at values of at least 85)
herbicidal activity (Amaranthus retroflexus; 1000 g/ha): very good (a very good herbicidal activity is given at values of at least 85)
herbicidal activity (Apera spica-venti; 1000 g/ha): very good (a very good herbicidal activity is given at values of at least 85)
herbicidal activity (Alopecurus myosuroides; 1000 g/ha): very good (a very good herbicidal activity is given at values of at least 85)

CC(C)(O)c1nc(C2CC2)ncc1-c1ccccc1Cl [Ex. 86]
herbicidal activity (Abutilon theophrasti; 1000 g/ha): good (A good herbicidal activity is given at values of at least 70)
herbicidal activity (Amaranthus retroflexus; 1000 g/ha): good (A good herbicidal activity is given at values of at least 70)
herbicidal activity (Apera spica-venti; 1000 g/ha): good (A good herbicidal activity is given at values of at least 70)
herbicidal activity (Setaria viridis; 1000 g/ha): very good (a very good herbicidal activity is given at values of at least 85)

Cc1nc(C(C)(Br)Br)ncc1-c1ccccc1Cl [Ex. 50]
herbicidal activity (Amaranthus retroflexus; 500 g/ha): very good (a very good herbicidal activity is given at values of at least 85)
herbicidal activity (Setaria viridis; 500 g/ha): very good (a very good herbicidal activity is given at values of at least 85)

CC(C)(C)c1ncc(-c2nc(C3CC3)ncc2-c2ccccc2Cl)o1 [Ex. 294]
herbicidal activity (Abutilon theophrasti; 2000 g/ha): very good (a very good herbicidal activity is given at values of at least 85)
herbicidal activity (Echinocloa crus-galli [1]; 2000 g/ha): very good (a very good herbicidal activity is given at values of at least 85)
herbicidal activity (Apera spica-venti; 2000 g/ha): good (A good herbicidal activity is given at values of at least 70)
herbicidal activity (Alopecurus myosuroides; 2000 g/ha): very good (a very good herbicidal activity is given at values of at least 85)

Cc1nc(C)c(-c2nc(C3CC3)ncc2-c2cc(C(F)(F)F)ccc2Cl)o1 [Ex. 278]
herbicidal activity (Abutilon theophrasti; 1000 g/ha): very good (a very good herbicidal activity is given at values of at least 85)
herbicidal activity (Echinocloa crus-galli [1]; 1000 g/ha): very good (a very good herbicidal activity is given at values of at least 85)
herbicidal activity (Echinocloa crus-galli [2]; 1000 g/ha): very good (a very good herbicidal activity is given at values of at least 85)
herbicidal activity (Amaranthus retroflexus; 1000 g/ha): very good (a very good herbicidal activity is given at values of at least 85)
herbicidal activity (Apera spica-venti; 1000 g/ha): very good (a very good herbicidal activity is given at values of at least 85)

COc1ncc(-c2ccccc2Cl)c(/C=C/c2ccco2)n1 [Ex. 228]
herbicidal activity (Abutilon theophrasti; 1000 g/ha): good (A good herbicidal activity is given at values of at least 70)
herbicidal activity (Echinocloa crus-galli [1]; 1000 g/ha): good (A good herbicidal activity is given at values of at least 70)
herbicidal activity (Apera spica-venti; 1000 g/ha): very good (a very good herbicidal activity is given at values of at least 85)

Cc1oc(Br)cc1-c1nc(C2CC2)ncc1-c1ccccc1Br [Ex. 253]
herbicidal activity (Abutilon theophrasti; 1000 g/ha): good (A good herbicidal activity is given at values of at least 70)
herbicidal activity (Amaranthus retroflexus; 1000 g/ha): very good (a very good herbicidal activity is given at values of at least 85)
herbicidal activity (Alopecurus myosuroides; 1000 g/ha): very good (a very good herbicidal activity is given at values of at least 85)

Clc1ccccc1-c1cnc(C2CC2)nc1-c1cccnc1 [Ex. 123]
herbicidal activity (Amaranthus retroflexus; 2000 g/ha): very good (a very good herbicidal activity is given at values of at least 85)
herbicidal activity (Setaria viridis; 2000 g/ha): good (A good herbicidal activity is given at values of at least 70)

Clc1cncc(-c2nc(C3CC3)ncc2-c2ccccc2Cl)c1 [Ex. 279]
herbicidal activity (Abutilon theophrasti; 1000 g/ha): very good (a very good herbicidal activity is given at values of at least 85)
herbicidal activity (Echinocloa crus-galli [2]; 1000 g/ha): very good (a very good herbicidal activity is given at values of at least 85)
herbicidal activity (Amaranthus retroflexus; 1000 g/ha): very good (a very good herbicidal activity is given at values of at least 85)
herbicidal activity (Apera spica-venti; 1000 g/ha): very good (a very good herbicidal activity is given at values of at least 85)
herbicidal activity (Alopecurus myosuroides; 1000 g/ha): very good (a very good herbicidal activity is given at values of at least 85)

Cn1c(-c2nc(C3CC3)ncc2-c2ccccc2Cl)coc1=O [Ex. 289]
herbicidal activity (Echinocloa crus-galli [2]; 2000 g/ha): very good (a very good herbicidal activity is given at values of at least 85)
herbicidal activity (Amaranthus retroflexus; 2000 g/ha): very good (a very good herbicidal activity is given at values of at least 85)
herbicidal activity (Apera spica-venti; 2000 g/ha): very good (a very good herbicidal activity is given at values of at least 85)
herbicidal activity (Setaria viridis; 2000 g/ha): very good (a very good herbicidal activity is given at values of at least 85)
herbicidal activity (Alopecurus myosuroides; 2000 g/ha): very good (a very good herbicidal activity is given at values of at least 85)

Cc1ccccc1-c1cnc(C2CC2)nc1C [Ex. 19]
herbicidal activity (Abutilon theophrasti; 2000 g/ha): very good (a very good herbicidal activity is given at values of at least 85)
herbicidal activity (Amaranthus retroflexus; 2000 g/ha): very good (a very good herbicidal activity is given at values of at least 85)

Cc1nc(C)c(-c2nc(C3CC3)ncc2-c2ccc(F)cc2Cl)o1 [Ex. 276]
herbicidal activity (Abutilon theophrasti; 1000 g/ha): very good (a very good herbicidal activity is given at values of at least 85)
herbicidal activity (Amaranthus retroflexus; 1000 g/ha): very good (a very good herbicidal activity is given at values of at least 85)
herbicidal activity (Apera spica-venti; 1000 g/ha): very good (a very good herbicidal activity is given at values of at least 85)
herbicidal activity (Alopecurus myosuroides; 1000 g/ha): very good (a very good herbicidal activity is given at values of at least 85)

COC(=O)C(C)c1nc(C2CC2)ncc1-c1ccccc1Br (stereo not shown) [Ex. 85]
herbicidal activity (Abutilon theophrasti; 2000 g/ha): very good (a very good herbicidal activity is given at values of at least 85)
herbicidal activity (Amaranthus retroflexus; 2000 g/ha): good (A good herbicidal activity is given at values of at least 70)

CC(C)CC#Cc1nc(C2CC2)ncc1-c1ccccc1Cl [Ex. 28]
herbicidal activity (Abutilon theophrasti; 1163 g/ha): good (A good herbicidal activity is given at values of at least 70)
herbicidal activity (Amaranthus retroflexus; 1163 g/ha): very good (a very good herbicidal activity is given at values of at least 85)

C=Cc1nc(C2CC2)ncc1-c1ccccc1Cl [Ex. 211]
herbicidal activity (Echinocloa crus-galli [1]; 2000 g/ha): very good (a very good herbicidal activity is given at values of at least 85)
herbicidal activity (Poa annua): good (A good herbicidal activity is given at values of at least 70)
herbicidal activity (Apera spica-venti; 2000 g/ha): good (A good herbicidal activity is given at values of at least 70)
herbicidal activity (Alopecurus myosuroides; 2000 g/ha): good (A good herbicidal activity is given at values of at least 70)

Cc1ncoc1-c1nc(C2CC2)ncc1-c1cc(Br)ccc1Br [Ex. 273]
herbicidal activity (Echinocloa crus-galli [2]; 1000 g/ha): very good (a very good herbicidal activity is given at values of at least 85)
herbicidal activity (Amaranthus retroflexus; 1000 g/ha): very good (a very good herbicidal activity is given at values of at least 85)
herbicidal activity (Apera spica-venti; 1000 g/ha): very good (a very good herbicidal activity is given at values of at least 85)
herbicidal activity (Setaria viridis; 1000 g/ha): very good (a very good herbicidal activity is given at values of at least 85)
herbicidal activity (Alopecurus myosuroides; 1000 g/ha): very good (a very good herbicidal activity is given at values of at least 85)

Cc1ncoc1-c1nc(C2CC2)ncc1-c1cc(C(F)(F)F)ccc1Cl [Ex. 262]
herbicidal activity (Echinocloa crus-galli [1]; 1000 g/ha): very good (a very good herbicidal activity is given at values of at least 85)
herbicidal activity (Echinocloa crus-galli [2]; 1000 g/ha): very good (a very good herbicidal activity is given at values of at least 85)
herbicidal activity (Amaranthus retroflexus; 1000 g/ha): very good (a very good herbicidal activity is given at values of at least 85)
herbicidal activity (Apera spica-venti; 1000 g/ha): very good (a very good herbicidal activity is given at values of at least 85)
herbicidal activity (Setaria viridis; 1000 g/ha): very good (a very good herbicidal activity is given at values of at least 85)

CC(=O)Cc1nc(C2CC2)ncc1-c1ccccc1Cl [Ex. 146]
herbicidal activity (Abutilon theophrasti; 2000 g/ha): very good (a very good herbicidal activity is given at values of at least 85)
herbicidal activity (Echinocloa crus-galli [1]; 2000 g/ha): very good (a very good herbicidal activity is given at values of at least 85)
herbicidal activity (Echinocloa crus-galli [2]; 2000 g/ha): very good (a very good herbicidal activity is given at values of at least 85)
herbicidal activity (Apera spica-venti; 2000 g/ha): very good (a very good herbicidal activity is given at values of at least 85)
herbicidal activity (Setaria viridis; 2000 g/ha): very good (a very good herbicidal activity is given at values of at least 85)

Cc1coc(C)c1-c1nc(C2CC2)ncc1-c1ccccc1Br [Ex. 252]
herbicidal activity (Abutilon theophrasti; 1000 g/ha): very good (a very good herbicidal activity is given at values of at least 85)

CC1(C)OCC(=Cc2nc(C3CC3)ncc2-c2ccccc2Cl)CO1 [Ex. 296]
herbicidal activity (Abutilon theophrasti; 1000 g/ha): very good (a very good herbicidal activity is given at values of at least 85)
